The values below come from article PMC12693182, “Synthesis and QSAR Studies of Claramine Derivatives, a New Class of Broad-Spectrum Antimicrobial Agents” (Molecules, 2025).

Assay [1] deals with S. aureus ATCC 25923. Put plainly: MIC, broth microdilution. The class given is cell-based, Staphylococcus aureus. To be noted: ATCC strain; for MIC: Staphylococcus aureus, ATCC25923, 24 h. How it is done: (§1) Antimicrobial activity of the compounds was studied by determination of minimal inhibitory concentrations (MIC) according to the NCCLS guidelines M7-A2 using the microbroth dilution methods. The bacteria strains were grown on trypticase soy agar (Becton Dickinson) at 37 °C for 24 h. Inocula were prepared in TCE (tryptone 0.1%, […], wt/vol) by ajusting the turbidity at 623 nm to obtain 1–3 10^5 CFU/mL.
(§2) Antimicrobial activities of the compounds were determined by using a broth microdilution method performed in sterile 96-well microplates. All compounds were solubilized in water at a concentration of 10 mM and were transferred to each microplate well in order to obtain a two-fold serial dilution in 100 µL of broth and 100 µL of inoculum containing 2–6 10^5 CFU of each bacterium were added to each well. Some wells were reserved for positive controls and inoculum viability.

The subject of assay [2] is S. aureus 340. The experiment in a line: MIC, broth microdilution. The class given is cell-based, Staphylococcus aureus. To be noted: for MIC: Staphylococcus aureus, 340, 24 h; for MIC S. aureus 340: 24 h. How it is done: as §1, §2
(In broth dilution the organism is exposed to a series of concentrations in liquid medium.)

The subject of assay [3] is S. intermedius 1051997. The experiment in a line: MIC, broth microdilution. To be noted: 24 h; for MIC: Staphylococcus intermedius, 1051997, 24 h. Format: cell-based, Staphylococcus intermedius. As for the experimental part:
as §1, §2

Assay [4] relates to E. faecalis ATCC29212. Put plainly: MIC, broth microdilution. The class given is cell-based, Enterococccus faecalis. To be noted: ATCC strain; for MIC: Enterococcus faecalis, ATCC29212, 24 h, read-out: MIC E. faecalis 29212. As for the experimental part: as §1, §2
Assay [5] deals with Chinese hamster Ovary cells (CHO-K1). The experiment in a line: Cytotoxicity assay (WST-1 / Neutral Red). The class given is cell-based. To be noted: 24-h incubation; for IC50: Cricetulus griseus, 24 h. How it is done:
The cytotoxic activities of compounds were assessed on Chinese hamster Ovary cells (CHO-K1) provided from ATCC-LGC Standards Sarl (Molsheim, France). Cells were maintained in Mc Coy’s 5A (CHO) medium supplemented with 10% bovine calf serum, 2 mM glutamine, and 100 U mL^−1/10 µg mL^−1 penicillin/streptomycin mixtures. For the cytotoxicity experiments, they were seeded in 96-well plates and incubated at 37 °C in humidified atmosphere containing 5% CO2 overnight, then concentrations of compounds were incorporated in triplicate cultures. After a 24-h incubation period at 37 °C, cells were submitted to three successive washes in phosphate buffer saline (PBS) and cell viability was evaluated by two different vital dyes: • i. A first set of cell cultures was incubated in PBS containing 10% WST-1 for 30 min at 37 °C, 5% CO2. Cell viability was evaluated by the assessment of WST-1 absorbance at 450 nm in a microplate spectrophotometer. • ii. A second set of cell cultures was placed into Neutral Red medium (50 μg mL^−1 Neutral Red in complete medium) and incubated for 3 h at 37 °C, 5% CO2. Then the Neutral Red medium was removed and the distaining solution (50% ethanol, 1% acetic acid, 49% distilled water; 50 µL per well) was added into the wells. The plates were shaken for 15–20 min at room temperature in the dark. Cell viability was evaluated by the assessment of absorbance at 540 nm in a microplate spectrophotometer.
Results were expressed as percentages of cell viability about the control (culture medium-only), which corresponded to 100% cell viability. Dose-response curves were calculated by non-linear regression analysis with TableCurve 2D software (V 5.0.1) (Systat Software Inc., San Jose, CA, USA). The Inhibitory Concentration 50% (IC50) was defined as the concentration of compounds that induced a 50% decrease of viable cells.

Assay [6] has as its system P. aeruginosa 1051575. The experiment in a line: MIC, broth microdilution. Format: cell-based, Pseudomonas aeruginosa. To be noted: 24 h; for MIC: Pseudomonas aeruginosa, 1051575, 24 h. As for the experimental part: as §1, §2
The subject of assay [7] is E. coli ATCC 25922. Put plainly: MIC, broth microdilution. To be noted: ATCC strain; for MIC: Escherichia coli, ATCC25922, 24 h. The class given is cell-based, Escherichia coli. How it is done:
as §1, §2

Assay [8] relates to E. coli 1956. The experiment in a line: MIC, broth microdilution. To be noted: for MIC: Escherichia coli, 1956, 24 h. The class given is cell-based, Escherichia coli. As for the experimental part:
as §1, §2

The test system of assay [9] is P. aeruginosa ATCC 27853. The experiment in a line: MIC, broth microdilution. The class given is cell-based, Pseudomonas aeruginosa. To be noted: ATCC strain; for MIC: Pseudomonas aeruginosa, ATCC27853, 24 h. As for the experimental part: as §1, §2

≈ marks a conversion by molar mass, not a printed value.

A word on the MIC: it is the lowest concentration found to suppress growth. Regarding `CC[C@H]1OC(=O)[C@H](C)[C@@H](O[C@H]2C[C@@](C)(OC)[C@@H](O)[C@H](C)O2)[C@H](C)[C@@H](O[C@@H]2O[C@H](C)C[C@H](N(C)C)[C@H]2O)[C@](C)(O)C[C@@H](C)C(=O)[C@H](C)[C@@H](O)[C@]1(C)O` [Ery, Erythromycine, reference compound], the MIC in assay [1], in assay [2], in [3] and in [4] was 1 µg/mL (≈ 1.36 µM) each time.

The term IC50 denotes the midpoint of a concentration-inhibition curve. Read a high IC50 as a need for much substance. As for `COC(=O)CCC(C)C1CCC2C3C(O)CC4CC(NCCCNCCCN)CCC4(C)C3CC(O)C12C` (centres unmarked) [Claramine B02], the figures for the minimum inhibitory concentration (MIC) in assay [2] and in assay [6] were 7 µg/mL (≈ 13.1 µM) and 13 µg/mL (≈ 24.3 µM), respectively. The same compound yielded an IC50 in [5] of 27 µg/mL (≈ 50.4 µM).

In the case of `CCOC(=O)CCC(C)C1CCC2C3CCC4CC(NCCCNCCCCNCCCN)CCC4(C)C3CC(O)C12C` (centres unmarked) [Claramine A20], in assay [5], the IC50 was determined as 25 µg/mL (≈ 41.3 µM).

Turning to `CC(C)OC(=O)CCC(C)C1CCC2C3C(O)CC4CC(NCCCNCCCCN)CCC4(C)C3CC(O)C12C` (centres unmarked) [Claramine B14], the minimal inhibitory concentration (MIC) is 4 µg/mL (≈ 6.92 µM) in [7]; 30 µg/mL (≈ 51.9 µM) in assay [8]; 7 µg/mL (≈ 12.1 µM) in [1]; 14 µg/mL (≈ 24.2 µM) in assay [2]; 4 µg/mL (≈ 6.92 µM) in [3]; 30 µg/mL (≈ 51.9 µM) in [4]. The MIC in assay [6] is 7 µg/mL (≈ 12.1 µM); in [9], 15 µg/mL (≈ 26 µM). The compound also had an IC50 in [5] of 67 µg/mL (≈ 116 µM).

Take `CC(C)OC(=O)CCC(C)C1CCC2C3CCC4CC(NCCCNCCCCNCCCN)CCC4(C)C3CCC12C` (centres unmarked) [Claramine E01]: the MIC was 15 µg/mL (≈ 24.9 µM) in assay [7]; 8 µg/mL (≈ 13.3 µM) in assay [8]; 4 µg/mL (≈ 6.63 µM) in [1]; 4 µg/mL (≈ 6.63 µM) in assay [2]; 2 µg/mL (≈ 3.32 µM) in assay [3]; 8 µg/mL (≈ 13.3 µM) in assay [4]. Moreover, the results for the MIC in assay [6] and in assay [9] were 8 µg/mL (≈ 13.3 µM) and 15 µg/mL (≈ 24.9 µM), respectively. For the same compound, in assay [5], the IC50 came out at 24 µg/mL (≈ 39.8 µM).

In assay [5], `CC(CCC(=O)OC(C(F)(F)F)C(F)(F)F)C1CCC2C3CCC4CC(NCCCNCCCCNCCCN)CCC4(C)C3CC(O)C12C` (centres unmarked) [Claramine A25] returned an IC50 of 4 µg/mL (≈ 5.5 µM).

For `CC(C)OC(=O)CCC(C)C1CCC2C3C(O)CC4CC(NCCCNCCCCNCCCN)CCC4(C)C3CC(O)C12C` (centres unmarked) [Claramine B12], the MIC in assay [7] stood at 4 µg/mL (≈ 6.3 µM); in [8], 62 µg/mL (≈ 97.6 µM); in assay [1] it was 8 µg/mL (≈ 12.6 µM); in [2], 8 µg/mL (≈ 12.6 µM); in [3], 4 µg/mL (≈ 6.3 µM); in [4], 32 µg/mL (≈ 50.4 µM). Further, the MIC was 8 µg/mL (≈ 12.6 µM) in assay [6] and 16 µg/mL (≈ 25.2 µM) in assay [9]. This compound gave an IC50 in assay [5] of 48 µg/mL (≈ 75.6 µM).

For the compound `CC(C)OC(=O)CCC(C)C1CCC2C3CCC4CC(NCCCNCCCN)CCC4(C)C3CCC12C` (centres unmarked) [Claramine E04], the MIC in assay [2] and in [6] was 3 µg/mL (≈ 5.64 µM) throughout. This compound gave an IC50 in assay [5] of 13 µg/mL (≈ 24.4 µM).

Take `COC(=O)CCC(C)C1CCC2C3C(O)CC4CC(NCCCNCCCNCCCN)CCC4(C)C3CCC12C` (centres unmarked) [Claramine D02]: in [7] (24 h), the “MIC E. coli 25922” value is given as 4 µg/mL (≈ 6.93 µM). The “MIC E. coli 1956” value in assay [8] (24 h) is 60 µg/mL (≈ 104 µM). For the same compound, in assay [1] (24 h), the “MIC S. aureus 25923” value was 7 µg/mL (≈ 12.1 µM). In [2], the “MIC S. aureus 340” value is on record as 4 µg/mL (≈ 6.93 µM). For the same compound, in assay [5], the “IC50 CHO” value was 20 µg/mL (≈ 34.7 µM). Also, the “MIC S. intermedius 1051997” value in assay [3] amounted to 1 µg/mL (≈ 1.73 µM). Besides, the “MIC E. faecalis 29212” value in assay [4] (24 h) worked out at 30 µg/mL (≈ 52 µM). Moreover, in assay [6], the “MIC P. aeruginosa 1051575” value amounted to 7 µg/mL (≈ 12.1 µM). Further, in [9] (24 h), the “MIC P. aeruginosa 27853” value came out at 30 µg/mL (≈ 52 µM).

Turning to `CC(C)OC(=O)CCC(C)C1CCC2C3C(O)CC4CC(NCCCNCCCN)CCC4(C)C3CC(O)C12C` (centres unmarked) [Claramine B15], the MIC in assay [2] was found to be 14 µg/mL (≈ 24.8 µM); in assay [6], 28 µg/mL (≈ 49.7 µM). In assay [5], this compound returned an IC50 of 113 µg/mL (≈ 200 µM).

In the case of `CC(C)OC(=O)CCC(C)C1CCC2C3C(O)CC4CC(NCCCN5CCN(CCCN)CC5)CCC4(C)C3CCC12C` (centres unmarked) [Claramine C24], the MIC is 15 µg/mL (≈ 24.3 µM) in [7]; 30 µg/mL (≈ 48.6 µM) in assay [8]; 8 µg/mL (≈ 13 µM) in assay [1]; 4 µg/mL (≈ 6.48 µM) in [3]; 15 µg/mL (≈ 24.3 µM) in [4]; 30 µg/mL (≈ 48.6 µM) in assay [9]. Moreover, the “MIC S. aureus 340” value in assay [2] stood at 8 µg/mL (≈ 13 µM). Besides, the “MIC P. aeruginosa 1051575” value in assay [6] amounted to 30 µg/mL (≈ 48.6 µM).

As to `CC(CCC(=O)OC(C)(C)C)C1CCC2C3CCC4CC(NCCCNCCCCNCCCN)CCC4(C)C3CC(O)C12C` (centres unmarked) [Claramine A22], the MIC in [2] is less than 4 µg/mL. Moreover, in [5], the “IC50 CHO” value is 38 µg/mL (≈ 60 µM) and the 50% inhibitory concentration (IC50) was more than 35 µg/mL.
